pEC50, pKd: −log10 of the molar value. Values after ≈ are worked out from the molar mass of the structure shown.
Tests used:
[1] = tested on: fatty acid biosensor plasmids pLR-rfp and pAR-rfp in fadE knockout DH1 E. coli cells; assay: microbe, parasite or virus in culture; type: cell-based
[2] = tested on: fatty acid biosensor plasmids in DH1 fadD knockout strain; type: cell-based, E. coli; settings: up to the addition of 1 mM oleic acid
[3] = tested on: fatty acid sensing strain (pBARk-RFP and pE8a-fadR in E. coli); assay: Fatty acid biosensor pBARk-RFP with pE8a-fadR, oleic acid added to growth media (Example 3); type: cell-based; settings: plasmid pBARk-RFP, over a broad range of oleic acid concentration, 12 hours
FadR = FadR (Escherichia coli, UniProt P0A8V6); settings: read-out: Kd of FadR binding to oleic acid; cited from earlier work
[4] = tested on: E. coli fadBA promoter (PfadBA); settings: upon the addition of 5 mM oleic acid; cited from earlier work
[5] = cited from earlier work
HucR = settings: read-out: Kd (apparent), one value printed for the listed ligands; cited from earlier work

Chain of FadR (P0A8V6 whole entry): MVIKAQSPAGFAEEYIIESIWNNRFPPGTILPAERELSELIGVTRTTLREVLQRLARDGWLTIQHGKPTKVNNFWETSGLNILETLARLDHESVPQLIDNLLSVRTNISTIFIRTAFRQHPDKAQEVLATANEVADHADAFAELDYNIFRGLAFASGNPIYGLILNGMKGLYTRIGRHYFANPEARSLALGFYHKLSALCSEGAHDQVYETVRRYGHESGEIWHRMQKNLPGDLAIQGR

SMILES | pEC50 ([1]; Escherichia coli, 12 h, read-out: apparent half maximal effective concentration (EC50)) | fluorescence change upon the addition of oleic acid ([1]; pAR-rfp, fadE knockout DH1 E. coli) [fold] | induction of RFP expression [2] | increase in fluorescence signal [3] | pKd (FadR) | increased expression level of PfadBA [4] [fold] | solubility limit in aqueous solution [5] [mM] | pKd (HucR)
CCCCCCCC/C=C\CCCCCCCC(=O)O [oleic acid] | 4.22 to 4.46 | 60 | no induction of RFP expression was detected | more than 50 fold | 5.30 | 5 | 5 (≈ 1410 µg/mL) | 
O=C(O)c1ccccc1O [salicylate] |  |  |  |  |  |  |  | 4.94
O=c1[nH]c(=O)c2[nH]c(=O)[nH]c2[nH]1 [uric acid] |  |  |  |  |  |  |  | 4.94
